Drawing on ChEMBL document CHEMBL6109078, “Pyrylium derivatives as outer membrane permeabilizers against MDR gram-negative bacteria via multi-target mode of action” (Eur J Med Chem, 2025), this text covers MIC and survival for two molecules.

Molecules are shown by their SMILES. ≈ marks a conversion by molar mass, not a printed value. Bridge positions count the residues as written; N and C are the ends. Square brackets hold non-standard residues; d marks the D form. Peptide text beside a SMILES is read from it. * marks the point of attachment. X1 = CC[C@H](C)CCCCC(=O)*; Dab = NCC[C@H](N)C(=O)O

Type in all cases: functional
Assay [1] has as its system Acinetobacter baumannii. The experiment in a line: Antibacterial activity against Acinetobacter baumannii ATCC 19606 assessed as inhibition of bacterial growth by CLSI protocol based method.
Assay [2] has as its system Escherichia coli. The experiment in a line: Antibacterial activity against Escherichia coli ATCC 25922 assessed as inhibition of bacterial growth by CLSI protocol based method.
Assay [3] has as its system Escherichia coli. As to the kind of experiment: Antibacterial activity against ESBL positive Escherichia coli ATCC 35218 assessed as inhibition of bacterial growth by CLSI protocol based method.
Assay [4] concerns Klebsiella pneumoniae. The experiment in a line: Antibacterial activity against Klebsiella pneumoniae ATCC 700603 assessed as inhibition of bacterial growth by CLSI protocol based method.
For assay [5], the system named is Pseudomonas aeruginosa. The experiment in a line: Antibacterial activity Pseudomonas aeruginosa ATCC 27853 assessed as inhibition of bacterial growth by CLSI protocol based method.
The subject of assay [6] is Acinetobacter baumannii. The experiment in a line: Antibacterial activity against multi-drug resistant Acinetobacter baumannii clinical isolate 5 assessed as inhibition of bacterial growth by CLSI protocol based method.
In assay [7] the test system is Acinetobacter baumannii. The experiment in a line: Antibacterial activity against multi-drug resistant Acinetobacter baumannii clinical isolate 10 assessed as inhibition of bacterial growth by CLSI protocol based method.
Assay [8] relates to Acinetobacter baumannii. The experiment in a line: Antibacterial activity against multi-drug resistant Acinetobacter baumannii clinical isolate 2 assessed as inhibition of bacterial growth by CLSI protocol based method.
In assay [9] the test system is Acinetobacter baumannii. As to the kind of experiment: Antibacterial activity against multi-drug resistant Acinetobacter baumannii clinical isolate 4 assessed as inhibition of bacterial growth by CLSI protocol based method.
The subject of assay [10] is Acinetobacter baumannii. As to the kind of experiment: Antibacterial activity against multi-drug resistant Acinetobacter baumannii clinical isolate 51 assessed as inhibition of bacterial growth by CLSI protocol based method.
Assay [11] concerns Acinetobacter baumannii. As to the kind of experiment: Antibacterial activity against multi-drug resistant Acinetobacter baumannii clinical isolate 14 assessed as inhibition of bacterial growth by CLSI protocol based method.
Assay [12] relates to Acinetobacter baumannii. The experiment in a line: Antibacterial activity against multi-drug resistant Acinetobacter baumannii clinical isolate 1 assessed as inhibition of bacterial growth by CLSI protocol based method.
In assay [13] the test system is Acinetobacter baumannii. The experiment in a line: Antibacterial activity against multi-drug resistant Acinetobacter baumannii clinical isolate 43 assessed as inhibition of bacterial growth by CLSI protocol based method.
Assay [14] relates to Escherichia coli. The experiment in a line: Antibacterial activity against multi-drug resistant Escherichia coli clinical isolate 1 assessed as inhibition of bacterial growth by CLSI protocol based method.
Assay [15] concerns Escherichia coli. As to the kind of experiment: Antibacterial activity against Escherichia coli CG-4 expressing MCR-1 and NDM-1 assessed as inhibition of bacterial growth by CLSI protocol based method.
The test system of assay [16] is Escherichia coli. As to the kind of experiment: Antibacterial activity against Escherichia coli ATCC 25922 infected in Galleria mellonella larvae assessed as survival rate of larvae at 1 microg/ml relative to control.
Assay [17] relates to Acinetobacter baumannii. As to the kind of experiment: Antibacterial activity against Acinetobacter baumannii ATCC 19606 infected in Galleria mellonella larvae assessed as survival rate of larvae at 1 microg/ml measured after 96 hrs relative to control.
Assay [18] concerns Klebsiella pneumoniae. The experiment in a line: Antibacterial activity against Klebsiella pneumoniae BAA ATCC 1706 assessed as inhibition of bacterial growth by CLSI protocol based method.
Assay [19] concerns Pseudomonas aeruginosa. As to the kind of experiment: Antibacterial activity Pseudomonas aeruginosa PAO1 assessed as inhibition of bacterial growth by CLSI protocol based method.

With `CC(C)CCCCC(=O)N[C@@H](CCN)C(=O)N[C@H](C(=O)N[C@@H](CCN)C(=O)N[C@H]1CCNC(=O)[C@H]([C@@H](C)O)NC(=O)[C@H](CCN)NC(=O)[C@H](CCN)NC(=O)[C@H](CC(C)C)NC(=O)[C@@H](Cc2ccccc2)NC(=O)[C@H](CCN)NC1=O)[C@@H](C)O.CC[C@H](C)CCCCC(=O)N[C@@H](CCN)C(=O)N[C@H](C(=O)N[C@@H](CCN)C(=O)N[C@H]1CCNC(=O)[C@H]([C@@H](C)O)NC(=O)[C@H](CCN)NC(=O)[C@H](CCN)NC(=O)[C@H](CC(C)C)NC(=O)[C@@H](Cc2ccccc2)NC(=O)[C@H](CCN)NC1=O)[C@@H](C)O` (X1-[Dab]T[Dab][Dab][Dab][dF]L[Dab][Dab]T; lactam 4-C), the minimal inhibitory concentration (MIC) stood at 0.05 µg/mL in assay [1]; 0.05 µg/mL in assay [2]; 0.1 µg/mL in assay [3]; 0.2 µg/mL in assay [4]; 6.25 µg/mL in assay [5]; 0.05 µg/mL in [6]. The minimal inhibitory concentration (MIC) in assay [7] was 0.05 µg/mL; in [8], 0.39 µg/mL; in [9] it was 0.39 µg/mL; in [10], 0.78 µg/mL; in assay [11], 0.39 µg/mL; in [12], above 100 µg/mL. Moreover, the MIC is above 100 µg/mL in assay [13], 12.5 µg/mL in assay [14] and 6.25 µg/mL in assay [15]. In addition, the survival at 1 µg/mL in assay [16] was found to be 40%; in assay [17], 20%.

As for `NCC[C@H](O)C(=O)N[C@@H]1C[C@H](N)[C@@H](O[C@H]2O[C@H](CN)[C@@H](O)[C@H](O)[C@H]2O)[C@H](O)[C@H]1O[C@H]1O[C@H](CO)[C@@H](O)[C@H](N)[C@H]1O` [AMIKACIN], the MIC in [1] amounted to 0.78 µg/mL (≈ 1.33 µM); in assay [2] it was 6.25 µg/mL (≈ 10.7 µM); in assay [3], 1.56 µg/mL (≈ 2.66 µM); in assay [4] it was 0.78 µg/mL (≈ 1.33 µM); in [18], 50 µg/mL (≈ 85.4 µM); in [5] it was 0.78 µg/mL (≈ 1.33 µM). Besides, the minimal inhibitory concentration (MIC) in assay [19] is 0.2 µg/mL (≈ 0.342 µM); in assay [6], above 100 µg/mL; in assay [7], above 100 µg/mL; in [8], above 100 µg/mL; in assay [9] it was above 100 µg/mL; in [10], above 100 µg/mL. For the same molecule, the minimal inhibitory concentration (MIC) in [11] was 50 µg/mL (≈ 85.4 µM); in [12], above 100 µg/mL; in assay [13], above 100 µg/mL; in assay [14], above 100 µg/mL; in [15], 100 µg/mL (≈ 171 µM).
